The values that follow come from article PMC11783063, “Design, synthesis, and apoptotic antiproliferative action of new benzimidazole/1,2,3-triazole hybrids as EGFR inhibitors” (Frontiers in Chemistry, 2025).

Read-outs that look alike come from different tables or passages of the source.

The IC50 is the concentration at which inhibition is half-maximal. One may read the viability as a read-out of living cells in per cent, often relative to untreated cells. Read a low viability as more harm to the cells.

The subject of series [1] is four human cancer cell lines (HT-29, A-549, MCF-7, Panc-1). Nature of the series: Antiproliferative assay, mean over four cancer cell lines (GI50). The settings on record: for IC50: read-out: Average IC50 (GI50).
Protocol: To calculate the total nuclear DNA, a fluorescent dye (propidium iodide, PI) is used which can attach to the DNA, thus offering a quick and precise technique. PI cannot pass through the cell membrane and its signal intensity can be considered as directly proportional to quantity of cellular DNA. Cells whose cell membranes are damaged or have changed permeability are counted as dead ones. […] The medium was removed; the compounds were added to the plates at 10 µM concentrations (in 0.1% DMSO) in triplicates, followed by incubation for 48 h. DMSO (0.1%) was used as control. After incubation, medium was removed followed by the addition of PI (25 µl, 50µg/mL in water/medium) to each well of the plates. At -80 °C, the plates were allowed to freeze for 24 h, followed by thawing at 25 °C. A fluorometer (Polar-Star BMG Tech) was used to record the readings at excitation and emission wavelengths of 530 and 620 nm for each well. The percentage cytotoxicity of compounds was calculated using the following formula:
The subject of series [2] is A-549 (lung cancer cell line). Briefly: Antiproliferative assay, A-549. It is filed as cell-based, human. The settings on record: read-out: Antiproliferative activity IC50 ± SEM, A-549. The source says:
(§1) Refer to Supplementary Appendix A for more information.
(§2) DMSO (0.1%) was used as control.

Series [3] deals with MCF-7 (breast cancer cell line). Briefly: Antiproliferative assay, MCF-7. Type of series: cell-based, human. The settings on record: read-out: Antiproliferative activity IC50 ± SEM, MCF-7.
From the text: as §1, §2

Series [4] deals with Panc-1 (pancreatic cancer cell line). Nature of the series: Antiproliferative assay, Panc-1. Particulars: read-out: Antiproliferative activity IC50 ± SEM, Panc-1. It is filed as cell-based, human.
From the text: as §1, §2

Series [5] deals with HT-29 (colon cancer cell line). Briefly: Antiproliferative assay, HT-29. Type of series: cell-based, human. The settings on record: read-out: Antiproliferative activity IC50 ± SEM, HT-29.
From the text: as §1, §2

The subject of series [6] is MCF-10A normal human mammary gland epithelial cell line. Particulars: 50 µM.
Protocol: (§3) The medium in which cells were propagated contained Dulbecco's modified Eagle's medium (DMEM)/ Ham's F-12 medium (1:1) supplemented with epidermal growth factor (20 ng/mL), hydrocortisone (500 ng/mL), insulin (10 μg/mL), 2 mM glutamine and 10% foetal calf serum. After every 2-3 days, the cells were passed using trypsin ethylenediamine tetra acetic acid (EDTA). The cells were seeded at a density of 10^4 cells mL^-1 in flat-bottomed culture plates containing 96 wells each. After 24 h, medium was removed from the plates and the compounds in (in 0.1% DMSO) were added (in 200 μL medium to yield a final concentration of 0.1% v/v) to the wells of plates. A single compound was designated with four wells followed by incubation of plates for 96h at 37°C. After incubation, medium was removed completely from the plates followed by addition of MTT (0.4 mg/mL in medium) to each well and subsequent incubation of plates for 3h. MTT (along with the medium) was removed and DMSO (150μL) was added to each well of the culture plates, followed by vortexing and subsequent measurement of absorbance (at 540 nm) using microplate reader.
A further series addresses EGFR (Homo sapiens, UniProt P00533). Nature of the series: EGFR-TK inhibitory assay.
Series [7] can be described thus: Cell viability assay (MTT) on MCF-10A normal cells. The settings on record: human, MCF-10A normal mammary gland epithelial cells.
Protocol: as §3
[8] abbreviates: mean IC50 of A-549, MCF-7, Panc-1, HT-29.

EGFR, sequence (P00533 669-1210): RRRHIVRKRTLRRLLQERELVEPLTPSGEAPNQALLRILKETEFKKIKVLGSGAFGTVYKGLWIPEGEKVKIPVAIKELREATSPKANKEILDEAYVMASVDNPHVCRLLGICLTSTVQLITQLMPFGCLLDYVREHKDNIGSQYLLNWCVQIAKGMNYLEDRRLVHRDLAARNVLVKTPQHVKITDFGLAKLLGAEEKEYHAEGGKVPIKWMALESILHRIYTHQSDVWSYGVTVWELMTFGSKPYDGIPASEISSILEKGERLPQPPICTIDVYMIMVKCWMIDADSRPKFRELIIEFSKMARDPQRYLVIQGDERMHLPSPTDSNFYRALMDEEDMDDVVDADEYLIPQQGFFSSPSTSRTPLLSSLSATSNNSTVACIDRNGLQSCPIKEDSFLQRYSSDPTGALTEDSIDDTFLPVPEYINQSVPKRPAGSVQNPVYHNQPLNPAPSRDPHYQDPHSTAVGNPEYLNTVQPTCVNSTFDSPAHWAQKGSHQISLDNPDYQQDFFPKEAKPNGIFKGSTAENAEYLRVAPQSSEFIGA
Protocol for EGFR: To record autophosphorylation level, EGFR kinase assay was carried out on the basis of DELFIA/Time-Resolved Fluorometry. […] Each compound (10 µL) was incubated with recombinant enzyme (10 µL, 5 ng for EGFR, 1:80 dilution in 100 mM HEPES) for 10 min at 25 °C, subsequent to the addition of 5X buffer (10 µL, containing 2 mM MnCl2, 100 µM Na3VO4, 20 mM HEPES and 1 mM DTT) and ATP-MgCl2 (20 µL, containing 0.1 mM ATP and 50 mM MgCl2) and incubation for 1h. The negative and positive controls were included in each plate by the incubation of enzyme either with or without ATP-MgCl2. The liquid was removed after incubation and the plates were washed thrice using wash buffer. Europium-tagged antiphosphotyrosine antibody (75 µL, 400 ng) was added to each well followed by incubation of 1h and then washing of the plates using buffer. […] The autophosphorylation percentage inhibition by compounds was calculated using the following equation:

`C#Cc1cccc(Nc2ncnc3cc(OCCOC)c(OCCOC)cc23)c1` [Erlotinib, reference compound]: in series [1] (Homo sapiens), the IC50 was 33 nM.

With “2-(Benzylthio)-1-((1-(3-methoxyphenyl)-1H-1,2,3-triazol-5-yl)methyl)-1H-benzimidazole [10h]”, the 50% inhibitory concentration (IC50) in series [2] (A-549) stood at 76 ± 7 nM; in series [3] (MCF-7), 72 ± 7 nM; in series [4] (Panc-1), 76 ± 7 nM; in series [5], 76 ± 7 nM; in series [1] (setting [8]), 75 nM. The Cell viability % in series [6] was 89%.

Turning to “2-(Benzylthio)-1-((1-(4-chlorophenyl)-1H-1,2,3-triazol-5-yl)methyl)-1H-benzimidazole [10b]”, the IC50 is 48 ± 4 nM in series [2] (A-549), 44 ± 3 nM in series [3] (MCF-7), 48 ± 4 nM in series [4] (Panc-1) and 48 ± 4 nM in series [5]. Further, the Cell viability % in series [6] was determined as 86%.

For the compound `COc1ccc(-n2cc(Cn3c(SCc4ccccc4)nc4ccccc43)nn2)cc1` [10g], the IC50 in series [2] (Homo sapiens, A549) came out at 34 ± 3 nM; in series [3] (Homo sapiens, MCF7), 32 ± 3 nM; in series [4] (Homo sapiens, PANC-1), 34 ± 3 nM; in series [5] (Homo sapiens) it was 35 ± 3 nM; at EGFR, 82 ± 5 nM; in series [1] (Homo sapiens), 34 nM. This compound displayed a viability at 4 days, 50 µM in series [7] of 90%.

With `COc1cccc(-n2cc(CSc3nc4ccccc4[nH]3)nn2)c1` [6h, 2-(((1-(3-Methoxyphenyl)-1H-1,2,3-triazol-4-yl)methyl)thio)-1H-benzimidazole], the IC50 in series [2] (Homo sapiens, A549) worked out at 69 ± 6 nM; in series [3] (Homo sapiens, MCF7), 66 ± 6 nM; in series [4] (Homo sapiens, PANC-1), 69 ± 6 nM; in series [5] (Homo sapiens), 68 ± 6 nM; in series [1] (Homo sapiens), 68 nM. The same compound displayed a viability at 4 days, 50 µM in series [7] of 91%.

Take “2-(Benzylthio)-1-((1-(4-bromophenyl)-1H-1,2,3-triazol-5-yl)methyl)-1H-benzimidazole [10c]”: the IC50 is 55 ± 5 nM in series [2] (A-549); 52 ± 5 nM in series [3] (MCF-7); 54 ± 5 nM in series [4] (Panc-1); 54 ± 5 nM in series [5]; 54 nM in series [1] (setting [8]). The compound also had a Cell viability % in series [6] of 92%.

As to `Cc1ccc(-n2cc(CSc3nc4ccccc4[nH]3)nn2)cc1` [6f, 2-(((1-(p-Tolyl)-1H-1,2,3-triazol-4-yl)methyl)thio)-1H-benzimidazole], the IC50 in series [2] (Homo sapiens, A549) amounted to 81 ± 7 nM; in series [3] (Homo sapiens, MCF7), 78 ± 7 nM; in series [4] (Homo sapiens, PANC-1) it was 80 ± 7 nM; in series [5] (Homo sapiens), 82 ± 7 nM; in series [1] (Homo sapiens), 80 nM. Further, the viability at 4 days, 50 µM in series [7] came to 90%.

In the case of `COc1ccc(-n2cc(CSc3nc4ccccc4[nH]3)nn2)cc1` [6g, 2-(((1-(4-Methoxyphenyl)-1H-1,2,3-triazol-4-yl)methyl)thio)-1H-benzimidazole], the IC50 in series [2] (Homo sapiens, A549) worked out at 72 ± 7 nM; in series [3] (Homo sapiens, MCF7) it was 69 ± 6 nM; in series [4] (Homo sapiens, PANC-1), 72 ± 7 nM; in series [5] (Homo sapiens), 74 ± 7 nM; in series [1] (Homo sapiens), 72 nM. Further, the viability at 4 days, 50 µM in series [7] stood at 89%.

With “2-(Benzylthio)-1-((1-phenyl-1H-1,2,3-triazol-5-yl)methyl)-1H-benzimidazole [10a]”, the IC50 amounted to 59 ± 5 nM in series [2] (A-549); 56 ± 5 nM in series [3] (MCF-7); 60 ± 5 nM in series [4] (Panc-1); 60 ± 5 nM in series [5]; 59 nM in series [1] (setting [8]). This compound also had a Cell viability % in series [6] of 87%.

`O=[N+]([O-])c1cccc(-n2cc(CSc3nc4ccccc4[nH]3)nn2)c1` [6e, 2-(((1-(3-Nitrophenyl)-1H-1,2,3-triazol-4-yl)methyl)thio)-1H-benzimidazole]: the IC50 amounted to 40 ± 3 nM in series [2] (Homo sapiens, A549); 36 ± 3 nM in series [3] (Homo sapiens, MCF7); 38 ± 3 nM in series [4] (Homo sapiens, PANC-1); 38 ± 3 nM in series [5] (Homo sapiens); 89 ± 6 nM against EGFR; 38 nM in series [1] (Homo sapiens). In series [7], the viability at 4 days, 50 µM came out at 86%.

In the case of “2-(Benzylthio)-1-((1-(p-tolyl)-1H-1,2,3-triazol-5-yl)methyl)-1H-benzimidazole [10f]”, the IC50 in series [2] (A-549) is 66 ± 6 nM; in series [3] (MCF-7), 63 ± 6 nM; in series [4] (Panc-1), 65 ± 6 nM; in series [5], 65 ± 6 nM; in series [1] (setting [8]), 65 nM. This compound gave a Cell viability % in series [6] of 89%.

Regarding `Brc1ccc(-n2cc(CSc3nc4ccccc4[nH]3)nn2)cc1` [6c, 2-(((1-(4-Bromophenyl)-1H-1,2,3-triazol-4-yl)methyl)thio)-1H-benzimidazole], the IC50 in series [2] (Homo sapiens, A549) came out at 96 ± 9 nM; in series [3] (Homo sapiens, MCF7), 90 ± 8 nM; in series [4] (Homo sapiens, PANC-1) it was 96 ± 9 nM; in series [5] (Homo sapiens) it was 94 ± 9 nM; in series [1] (Homo sapiens) it was 94 nM. The same compound gave a viability at 4 days, 50 µM in series [7] of 91%.

As to `NS(=O)(=O)c1ccc(-n2cc(Cn3c(SCc4ccccc4)nc4ccccc43)nn2)cc1` [10i], the IC50 in series [2] (Homo sapiens, A549) amounted to 44 ± 4 nM; in series [3] (Homo sapiens, MCF7) it was 42 ± 4 nM; in series [4] (Homo sapiens, PANC-1), 44 ± 4 nM; in series [5] (Homo sapiens), 45 ± 4 nM; in series [1] (Homo sapiens), 43 nM. The same compound yielded a viability at 4 days, 50 µM in series [7] of 91%.

Regarding `O=[N+]([O-])c1ccc(-n2cc(CSc3nc4ccccc4[nH]3)nn2)cc1` [6d, 2-(((1-(4-Nitrophenyl)-1H-1,2,3-triazol-4-yl)methyl)thio)-1H-benzimidazole], the IC50 in series [2] (Homo sapiens, A549) was 85 ± 7 nM; in series [3] (Homo sapiens, MCF7), 83 ± 7 nM; in series [4] (Homo sapiens, PANC-1) it was 86 ± 8 nM; in series [5] (Homo sapiens), 86 ± 8 nM; in series [1] (Homo sapiens), 85 nM. In addition, in series [7], the viability at 4 days, 50 µM came out at 93%.

Take `Clc1ccc(-n2cc(CSc3nc4ccccc4[nH]3)nn2)cc1` [6b, 2-(((1-(4-Chlorophenyl)-1H-1,2,3-triazol-4-yl)methyl)thio)-1H-benzimidazole]: the IC50 was found to be 47 ± 4 nM in series [2] (Homo sapiens, A549); 45 ± 4 nM in series [3] (Homo sapiens, MCF7); 48 ± 4 nM in series [4] (Homo sapiens, PANC-1); 48 ± 4 nM in series [5] (Homo sapiens); 47 nM in series [1] (Homo sapiens). This compound also showed a viability at 4 days, 50 µM in series [7] of 87%.

In the case of `O=[N+]([O-])c1ccc(-n2cc(Cn3c(SCc4ccccc4)nc4ccccc43)nn2)cc1` [10d], the IC50 is 37 ± 3 nM in series [2] (Homo sapiens, A549); 34 ± 3 nM in series [3] (Homo sapiens, MCF7); 36 ± 3 nM in series [4] (Homo sapiens, PANC-1); 38 ± 3 nM in series [5] (Homo sapiens); 86 ± 6 nM against EGFR; 36 nM in series [1] (Homo sapiens). This compound also showed a viability at 4 days, 50 µM in series [7] of 89%. Besides, in series [1] (GI50 vs 10e), the “Potency relative to 10e (GI50), fold less potent” value worked out at 1.5 fold.

With `c1ccc(-n2cc(CSc3nc4ccccc4[nH]3)nn2)cc1` [6a, 2-(((1-Phenyl-1H-1,2,3-triazol-4-yl)methyl)thio)-1H-benzimidazole], the half-inhibitory concentration (IC50) came out at 89 ± 8 nM in series [2] (Homo sapiens, A549); 85 ± 7 nM in series [3] (Homo sapiens, MCF7); 89 ± 8 nM in series [4] (Homo sapiens, PANC-1); 88 ± 8 nM in series [5] (Homo sapiens); 88 nM in series [1] (Homo sapiens). The same compound yielded a viability at 4 days, 50 µM in series [7] of 84%.
